Values of other authors in patent US20100029716A1, “NOVEL 1,2,3,4- TETRAHYDROQUINOLINE DERIVATIVES” (CONCERT PHARMACEUTICALS, INC., priority 2006, published 2010).

Tests used:
[1] = test system: atherosclerotic lesions; details: rabbit model of atherosclerosis
[2] = target: T1, human CETP (Homo sapiens, UniProt P11597); details: transgenic hCETP mice
T1 construct: host or cells: transgenic mice expressing human CETP and apolipoprotein A1 (hCETP mice)
T1 sequence (P11597 18-493): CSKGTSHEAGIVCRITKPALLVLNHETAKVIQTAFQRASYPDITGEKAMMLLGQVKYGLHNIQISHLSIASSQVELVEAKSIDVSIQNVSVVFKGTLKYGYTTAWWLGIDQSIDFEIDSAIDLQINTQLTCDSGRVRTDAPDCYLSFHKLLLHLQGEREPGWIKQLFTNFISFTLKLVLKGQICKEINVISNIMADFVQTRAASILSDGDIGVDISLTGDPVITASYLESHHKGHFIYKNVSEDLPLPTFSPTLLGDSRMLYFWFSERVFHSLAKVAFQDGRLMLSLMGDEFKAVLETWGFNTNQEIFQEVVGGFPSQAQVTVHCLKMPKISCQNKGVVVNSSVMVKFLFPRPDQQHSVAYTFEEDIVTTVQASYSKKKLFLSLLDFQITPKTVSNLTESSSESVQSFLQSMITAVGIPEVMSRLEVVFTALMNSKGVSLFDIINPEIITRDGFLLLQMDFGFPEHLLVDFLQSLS

[3] = conventional formulations
[4] = healthy volunteers, 14-day dosing period

## CCOC(=O)N1c2ccc(C(F)(F)F)cc2[C@@H](N(Cc2cc(C(F)(F)F)cc(C(F)(F)F)c2)C(=O)OC)C[C@H]1CC [Compound 1, (2R,4S)-ethyl 4-((3,5-bis(trifluoromethyl)benzyl)-(methoxycarbonyl)amino)-2-ethyl-6-(trifluoromethyl)-3,4-dihydroquinoline-1(2H)-carboxylate]
[1]
  formation of atherosclerotic lesions: reduce the formation of atherosclerotic lesions
[2]
  rate of cholesterol oleate transfer from LDL donor particles to HDL: decreased rates
[2]; multiple dosing
  HDL cholesterol: increased HDL cholesterol
[3]
  oral bioavailability: low
other
  aqueous solubility: poor
[4]
  increase of HDL cholesterol levels: up to 91%
  reduction of LDL cholesterol: up to 42%
